Measurements from the METLIN SMRT retention time set (Domingo-Almenara et al. 2019).

Assay: gradient 5% acetonitrile 3 min, to 50% in 2 min, to 85% in 15 min, held 3 min, 100 µL/min
Settings: column: Zorbax Extend-C18 2.1 x 50 mm; eluents: water / acetonitrile, 0.1% formic acid
How it was run: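 Retention times come from adduct peaks that were picked computationally and then checked by hand. The standards, pure and pooled in mixtures of ~100 molecules, were run on a Zorbax Extend-C18 column (2.1 × 50 mm, 1.8 μm) at 100 μL/min with water and acetonitrile, each with 0.1% formic acid. Detection was by quadrupole time-of-flight mass spectrometry in positive and negative ionization mode, with a dead volume of 40 μL and a dwell volume of 900 μL.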

In the case of Cn1cccc1C(=O)C(=O)NCc1cccc(Br)c1, the RP-LC retention time is reported as 918 s.

For CC(=O)N1CCc2cc(C)c(S(=O)(=O)NCC3CCCO3)cc21 (centres undefined), the RP-LC retention time was 691 s.

Brc1ccc(-c2nnc(Cc3nc(-c4ccccc4)no3)o2)cc1 gave an RP-LC retention time of 1100 s.

Nc1nnc(CS(=O)(=O)c2ccccc2)o1 gave an RP-LC retention time of 568 s.

COc1ccc(CNC(=O)c2cc3c(s2)CCN(C(C)=O)C3)cc1 showed an RP-LC retention time of 696 s.

Cc1ccccc1Nc1c(-c2ccc(Cl)cc2)nc2cccc(C)n12 showed an RP-LC retention time of 804 s.

Cc1ccc(CNC(=O)C2(C)CN(S(C)(=O)=O)CC(=O)N2Cc2cccc(C)c2)cc1 (centres undefined) showed an RP-LC retention time of 868 s.

For CCCNC(=O)Cc1nnc(-c2ccc(C)cc2)o1, the RP-LC retention time was 710 s.

For COc1ccccc1-c1cnn2c(Nc3ccc(NC(C)=O)cc3)cc(C)nc12, the RP-LC retention time was 593 s.

Work on Cc1ccc(NC(=O)N2CCC(n3c(C(F)(F)F)nc4cccnc43)CC2)cc1F yielded an RP-LC retention time of 944 s.

Compound COc1ccc(N2CCN(C(=O)c3csc(-c4ccc(N5CCCC5)nc4)n3)CC2)cc1 has an RP-LC retention time of 651 s.

In the case of Cc1cc(C)c(C)c(S(=O)(=O)N2CCC(F)(c3nc(CC(C)C)no3)CC2)c1C, the RP-LC retention time is reported as 1410 s.

With CCCS(=O)(=O)c1nc2ccc(NS(=O)(=O)c3c(C)cc(C)cc3C)cc2s1 the RP-LC retention time was 1030 s.

For Cc1cc(=O)n(CC(=O)Nc2ccccc2)c(-c2ccccc2)n1, the RP-LC retention time was 964 s.

Cc1cc(-c2ccc(S(=O)(=O)N3CCC(C(=O)NCCC(C)C)CC3)o2)n[nH]1 gave an RP-LC retention time of 783 s.

Compound O=C(Cn1cccc1-c1nc(-c2ccc3c(c2)OCO3)no1)Nc1cc(F)cc(F)c1 has an RP-LC retention time of 1060 s.

For Cc1cc(Cl)ccc1NC(=O)Cn1ccc2sccc2c1=O, the RP-LC retention time was 764 s.

With Cc1cccc(C(=O)N2CCN(c3nnc4cccc(C)n34)CC2)c1 the RP-LC retention time was 680 s.

Work on Cc1cc(C(F)(F)F)nn1CC(=O)N1CCc2nn(CC3CC3)c(=O)n2CC1 yielded an RP-LC retention time of 712 s.

Compound CN1CCn2cc(S(=O)(=O)Nc3ccc(F)cc3F)cc2C1=O has an RP-LC retention time of 671 s.

Compound CC(C)(C)NC(=O)N1CC2CC1C(=O)O2 (centres undefined) has an RP-LC retention time of 596 s.

In the case of Cc1cc(N2CCN(C(=O)c3ccc(Br)o3)CC2)nc(N2CCCC2)n1, the RP-LC retention time is reported as 636 s.

Work on CCC(c1cccs1)N1C(=O)[C@H]2CN(S(=O)(=O)c3ccc(OC)cc3)C[C@H]2C1=O (some centres undefined) yielded an RP-LC retention time of 910 s.

Cc1cc(C)n(-c2ccnc(NCc3ccc(Br)cc3)n2)n1 showed an RP-LC retention time of 946 s.

In the case of CCc1noc2nc(C)n(CC(=O)NCc3ccccc3)c(=O)c12, the RP-LC retention time is reported as 753 s.

In the case of Cc1cc(C)c2c(N(C)C)nc(C(=O)NC(C)c3ccccn3)nc2n1 (centres undefined), the RP-LC retention time is reported as 559 s.

In the case of Cc1ccc(C)c(NC(=O)Cn2nc3c(Oc4ccccc4C)nccn3c2=O)c1, the RP-LC retention time is reported as 908 s.

NC(=O)c1ccc(Cl)c2ccccc12 showed an RP-LC retention time of 777 s.

For COc1ccc(OC)c(NC(=O)N2CCC(OC3CCN(S(C)(=O)=O)CC3)CC2)c1, the RP-LC retention time was 751 s.

With NC1=C(Br)C(=O)c2ncccc2C1=O the RP-LC retention time was 599 s.

In the case of O=C(C1CCCN(c2ccc3cc(S(=O)(=O)N4CCCC4)ccc3n2)C1)N1CCc2ccccc21 (centres undefined), the RP-LC retention time is reported as 884 s.

With CCOc1ccccc1-n1nnc(C(=O)OC)c1C(=O)OC the RP-LC retention time was 862 s.

Work on COc1cccc(CNC(=O)C2CCCN2S(=O)(=O)c2cc3c(cc2Cl)NC(=O)CO3)c1 (centres undefined) yielded an RP-LC retention time of 880 s.

Compound Clc1ccc(Cl)c(-c2ccc(CNC3CC3)o2)c1 has an RP-LC retention time of 698 s.

CCc1onc(C)c1C1CCCN1C(=O)CCc1ccc(OC)cc1 (centres undefined) showed an RP-LC retention time of 839 s.

Work on O=C(NCC(F)(F)F)C1CN(C(=O)COc2ccccc2F)C1 yielded an RP-LC retention time of 666 s.

Cc1c(C(=O)NCCN2CCCCCC2)sc2ncnc(N3CCN(C)CC3)c12 gave an RP-LC retention time of 551 s.

In the case of O=C(Nc1ccc(F)cc1F)c1cnc(-c2ccccc2)nc1-c1ccncc1, the RP-LC retention time is reported as 874 s.

With COc1ccc(N2CCN(c3ncc(C(=O)O)c(C(C)C)n3)CC2)cc1 the RP-LC retention time was 865 s.

CCCn1c(-c2cccc(C(=O)NCCC3=CCCCC3)c2)nc2cccnc21 gave an RP-LC retention time of 935 s.

With COc1cccc(C2C(C(=O)NCCC(C)C)c3ccccc3C(=O)N2C2CC2)c1 (centres undefined) the RP-LC retention time was 838 s.

Work on CCOC(=O)N1CCC(NC(=O)c2cc3sccc3n2Cc2ccc(Cl)cc2)CC1 yielded an RP-LC retention time of 1060 s.

Cc1ccc(CNC(=O)N2CC(N(CC3CC3)C3CCOCC3)C2)cc1 gave an RP-LC retention time of 582 s.

O=C(O)c1cnc(NCc2ccccn2)nc1-c1cccc(Cl)c1 gave an RP-LC retention time of 613 s.

COc1cccc(-n2c(N3CCCC(C(=O)NCCN4CCCCC4)C3)nc3ccsc3c2=O)c1 (centres undefined) gave an RP-LC retention time of 632 s.

COc1ccc(-c2csc(NC(=O)CCCc3nc(-c4ccccc4Cl)no3)n2)cc1 showed an RP-LC retention time of 1080 s.

In the case of COc1ccc(NC(=O)Cc2c(C)nn(-c3nc(-c4ccc(Cl)cc4)cs3)c2C)cc1, the RP-LC retention time is reported as 1210 s.

Compound O=C(Nc1ccc(N2CCN(C3CCCCC3)C2=O)nc1)c1ccccc1 has an RP-LC retention time of 630 s.

In the case of CC(C)NC(=O)c1ccc(OCC2CCN(C(=O)c3ccc(F)cc3F)CC2)cc1, the RP-LC retention time is reported as 854 s.

In the case of CCc1nc2cc(-c3noc(-c4cnccn4)n3)ccc2o1, the RP-LC retention time is reported as 830 s.

For CCn1ccc2cc(S(=O)(=O)N3CCC(C(=O)NCC4CCCO4)CC3)ccc21 (centres undefined), the RP-LC retention time was 771 s.

With Cc1nnc(C2CC3(CCN(Cc4ccccc4)CC3)CN2Cc2ccccc2)o1 (centres undefined) the RP-LC retention time was 636 s.

COc1ccc(-c2nc(NC(=O)c3ccc(-c4nc5ccccc5s4)s3)sc2C)cc1 showed an RP-LC retention time of 1400 s.

In the case of CCc1nc2cc(-c3noc(-c4cccc5[nH]ccc45)n3)ccc2o1, the RP-LC retention time is reported as 1040 s.

Work on COCc1nncn1C1CCN(S(=O)(=O)c2ccccc2C(F)(F)F)CC1 yielded an RP-LC retention time of 725 s.

Compound Cc1nn(C)c(C)c1S(=O)(=O)N1[C@H]2CC[C@@H]1c1cnc(-c3ccccc3)nc1C2 has an RP-LC retention time of 865 s.

For CCC(C)Sc1nnc(NC(=O)C2CCN(C(=O)c3cccc(F)c3)CC2)s1 (centres undefined), the RP-LC retention time was 877 s.

For CCC1=C(c2ccc(C)cc2)S(=O)(=O)N=C1N1CCC(C(=O)N(C)Cc2ccco2)CC1, the RP-LC retention time was 894 s.

With CCn1cnc2cc(-c3noc(-c4cc(OC)c(OC)c(OC)c4)n3)ccc21 the RP-LC retention time was 732 s.

With COc1ccccc1NC(=O)N1CCC2(CC1)NC(=O)c1ccc(Cl)cc1N2C the RP-LC retention time was 806 s.

Compound Cc1noc(CNC(=O)CN(C)c2nc3c(F)cccc3s2)n1 has an RP-LC retention time of 667 s.

In the case of COCCN1CCn2cc(S(=O)(=O)Nc3cccc(Cl)c3)cc2C1=O, the RP-LC retention time is reported as 718 s.

With Cc1cc(C)c(C)c(S(=O)(=O)N2CCc3nc[nH]c3C2)c1C the RP-LC retention time was 666 s.

Cc1ccc(-n2nc3c(N4CCCC(C(=O)NCc5ccccc5C)C4)nnc(C)c3c2C)cc1 (centres undefined) showed an RP-LC retention time of 779 s.

CCCCN1C(=O)C(C)(C(=O)Nc2ccc(C)cc2)Oc2cccnc21 (centres undefined) gave an RP-LC retention time of 1060 s.

In the case of O=C(NCc1ccc2c(c1)OCO2)C1CCCN(c2nccn3nc(-c4ccccc4Cl)cc23)C1 (centres undefined), the RP-LC retention time is reported as 895 s.

In the case of Cc1cccc(C(=O)N2CC(C)C(=O)Nc3ccccc32)c1 (centres undefined), the RP-LC retention time is reported as 688 s.

Cc1noc(-c2ccnc(-n3cnc(C(=O)NC(C)c4ccc(F)cc4)c3)c2)n1 (centres undefined) gave an RP-LC retention time of 885 s.

Compound CCOc1ccc(S(=O)(=O)NCc2c(-c3ccccc3)nc3sc(C)nn23)cc1 has an RP-LC retention time of 913 s.

Work on O=C(NCc1cccs1)c1nc(-c2ccnc(N3CCCCC3)c2)no1 yielded an RP-LC retention time of 742 s.

Compound COc1cc(OC)c(NC(=O)C2CCN(S(=O)(=O)c3cn(C(C)C)cn3)CC2)cc1Cl has an RP-LC retention time of 814 s.

Compound O=C(CN1C(=O)COc2ccc(Cl)cc21)NCC(=O)N1CCCc2ccccc21 has an RP-LC retention time of 862 s.

With O=C(C1CCN(c2nc3ccc(-c4cccnc4)nc3s2)CC1)N1CCCCC1 the RP-LC retention time was 652 s.

CC(=O)C1=C(O)C(=O)N(C(C)c2ccccc2)C1c1ccccc1 (centres undefined) showed an RP-LC retention time of 836 s.

CCOC(=O)C1CCN(S(=O)(=O)c2cc(-c3nnc(-c4ccccc4)o3)ccc2OC)CC1 showed an RP-LC retention time of 976 s.

Compound Cc1nc(C)c(-c2ccc(=O)n(CCNC(=O)c3csc(-c4ccccc4)n3)n2)s1 has an RP-LC retention time of 683 s.

With COc1cc(NC(=O)CSC2CCc3ccccc3NC2=O)cc(OC)c1 (centres undefined) the RP-LC retention time was 796 s.

With O=C(CN1C(=O)C(C(=O)N2CCCC2)Sc2ccccc21)N1CCN(Cc2ccccc2)CC1 (centres undefined) the RP-LC retention time was 625 s.

In the case of Cc1noc(C)c1CCNC(=O)CCCn1c2ccccc2c2cnn(C)c(=O)c21, the RP-LC retention time is reported as 713 s.

In the case of COC(=O)c1c(C)[nH]c(C(=O)N2CCC(CC(=O)NCCC3=CCCCC3)CC2)c1C, the RP-LC retention time is reported as 787 s.

With COc1ccc(CN2C=C(C(=O)OCc3noc(-c4ccccc4F)n3)C(C)=NS2(=O)=O)cc1 the RP-LC retention time was 1090 s.

For COc1ccccc1N1CCN(S(=O)(=O)c2cc(-c3nc(C(C)C)cs3)cs2)CC1, the RP-LC retention time was 1300 s.

Compound COc1cccc(NS(=O)(=O)c2cc3n(c2)CCCNC3=O)c1 has an RP-LC retention time of 632 s.

In the case of COc1ccc(NC(=O)N2CCC3(CC2)N=C(c2cccc(F)c2)C(=O)N3)c(OC)c1, the RP-LC retention time is reported as 786 s.

Nc1ncc2c(n1)CC(c1ccco1)CC2=O (centres undefined) showed an RP-LC retention time of 676 s.

For CCOc1ccc(N2CC(c3nnc(NC(=O)CC4CCCCC4)o3)CC2=O)cc1 (centres undefined), the RP-LC retention time was 804 s.

CCc1ccc(OCc2nc(CCN(C)C(=O)c3ccco3)no2)cc1 showed an RP-LC retention time of 910 s.

CC(C(=O)N1CCCN(c2nc3cccnc3o2)CC1)c1ccccc1 (centres undefined) showed an RP-LC retention time of 718 s.

Work on O=C(NCc1ccccc1)NC1CCN(C(=O)N2C[C@H]3C[C@H](C2)[C@H]2CCCC(=O)N2C3)CC1 yielded an RP-LC retention time of 660 s.
